# In patent publication US8802597B2, “Herbicidal pyrimidines” (E I du Pont de Nemours and Company, priority 2003, dated 2014):
# Read-outs that look alike come from different tables or passages of the source.
# Assays:
# Experiment in all cases: Test A pre/postemergence
# Assay type in all cases: in vivo
# [1] = test system: giant foxtail (Setaria faberi); settings: for pest or weed control at 125 g/ha / pest or weed control at 500 g/ha: Setaria faberi, 240 h, read-out: Plant response rating, Foxtail, Giant
# Procedure, shortened: (§1)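 Pre/post greenhouse screen; loam/sand soil; solvent + surfactant formulation; pre = directed soil spray at planting, post = 1–2 leaf plants, 2–10 cm; ~10 d; visual 0–100 rating vs untreated.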
# [2] = test system: redroot pigweed (Amaranthus retroflexus); settings: for pest or weed control at 125 g/ha / pest or weed control at 500 g/ha: Amaranthus retroflexus, 240 h, read-out: Plant response rating, Pigweed
# Procedure, shortened: as §1
# [3] = test system: crabgrass (Digitaria sanguinalis); settings: for pest or weed control at 125 g/ha / pest or weed control at 500 g/ha: Digitaria sanguinalis, 240 h, read-out: Plant response rating, Crabgrass
# Procedure, shortened: as §1
# [4] = test system: velvetleaf (Abutilon theophrasti); settings: for pest or weed control at 125 g/ha / pest or weed control at 500 g/ha: Abutilon theophrasti, 240 h, read-out: Plant response rating, Velvetleaf
# Procedure, shortened: as §1
# [5] = test system: morningglory (Ipomoea spp.); settings: for pest or weed control at 125 g/ha / pest or weed control at 500 g/ha: Ipomoea, 240 h, read-out: Plant response rating, Morningglory
# Procedure, shortened: as §1
# [6] = test system: barnyardgrass (Echinochloa crus-galli); settings: for pest or weed control at 125 g/ha / pest or weed control at 500 g/ha: Echinochloa crus-galli, 240 h, read-out: Plant response rating, Barnyardgrass
# Procedure, shortened: as §1
# [7] = Postemergence, 125 g ai/ha, 0 to 100 scale (0 no effect, 100 complete control)
# [8] = Postemergence, 500 g ai/ha, 0 to 100 scale (0 no effect, 100 complete control)
# [9] = Preemergence, 125 g ai/ha, 0 to 100 scale where 0 is no effect and 100 is complete control, approximately ten days
# [10] = Preemergence, 500 g ai/ha, 0 to 100 scale where 0 is no effect and 100 is complete control, approximately ten days
# [11] = post-emergence, Postemergence, 125 g ai/ha, 0 to 100 scale (0 no effect, 100 complete control)
# [12] = post-emergence, Postemergence, 500 g ai/ha, 0 to 100 scale (0 no effect, 100 complete control)
# [13] = pre-emergence, Preemergence, 125 g ai/ha, 0 to 100 scale where 0 is no effect and 100 is complete control, approximately ten days
# [14] = pre-emergence, Preemergence, 500 g ai/ha, 0 to 100 scale where 0 is no effect and 100 is complete control, approximately ten days
smiles,measurement,setting,value
Cc1ccc(-c2nc(N)c(Cl)c(C(=O)O)n2)cc1 [Compound 91],"Plant response rating, Foxtail, Giant",[1]; [7],5
same,"Plant response rating, Foxtail, Giant",[1]; [8],75
same,"Plant response rating, Foxtail, Giant",[1]; [9],0
same,"Plant response rating, Foxtail, Giant",[1]; [10],25
same,"Plant response rating, Pigweed",[2]; [7],55
same,"Plant response rating, Pigweed",[2]; [8],100
same,"Plant response rating, Pigweed",[2]; [9],100
same,"Plant response rating, Pigweed",[2]; [10],100
same,"Plant response rating, Crabgrass",[3]; [7],5
same,"Plant response rating, Crabgrass",[3]; [8],15
same,"Plant response rating, Crabgrass",[3]; [9],25
same,"Plant response rating, Crabgrass",[3]; [10],75
same,"Plant response rating, Velvetleaf",[4]; [7],75
same,"Plant response rating, Velvetleaf",[4]; [8],95
same,"Plant response rating, Velvetleaf",[4]; [9],80
same,"Plant response rating, Velvetleaf",[4]; [10],100
same,"Plant response rating, Morningglory",[5]; [7],5
same,"Plant response rating, Morningglory",[5]; [8],30
same,"Plant response rating, Morningglory",[5]; [9],5
same,"Plant response rating, Morningglory",[5]; [10],50
same,"Plant response rating, Barnyardgrass",[6]; [7],75
same,"Plant response rating, Barnyardgrass",[6]; [8],90
same,"Plant response rating, Barnyardgrass",[6]; [9],5
same,"Plant response rating, Barnyardgrass",[6]; [10],80
"COC(=O)c1nc(-c2ccc(Br)cc2)nc(N)c1Cl [Compound 96, methyl 6-amino-2-(4-bromophenyl)-5-chloro-4-pyrimidinecarboxylate]",pest or weed control at 125 g/ha,[1]; [11],25%
same,pest or weed control at 500 g/ha,[1]; [12],35%
same,pest or weed control at 125 g/ha,[1]; [13],5%
same,pest or weed control at 500 g/ha,[1]; [14],10%
same,pest or weed control at 125 g/ha,[2]; [11],70%
same,pest or weed control at 500 g/ha,[2]; [12],85%
same,pest or weed control at 125 g/ha,[2]; [13],80%
same,pest or weed control at 500 g/ha,[2]; [14],80%
same,pest or weed control at 125 g/ha,[3]; [11],5%
same,pest or weed control at 500 g/ha,[3]; [12],20%
same,pest or weed control at 125 g/ha,[3]; [13],50%
same,pest or weed control at 500 g/ha,[3]; [14],65%
same,pest or weed control at 125 g/ha,[4]; [11],80%
same,pest or weed control at 500 g/ha,[4]; [12],85%
same,pest or weed control at 125 g/ha,[4]; [13],65%
same,pest or weed control at 500 g/ha,[4]; [14],80%
same,pest or weed control at 125 g/ha,[5]; [11],60%
same,pest or weed control at 500 g/ha,[5]; [12],65%
same,pest or weed control at 125 g/ha,[5]; [13],15%
same,pest or weed control at 500 g/ha,[5]; [14],80%
same,pest or weed control at 125 g/ha,[6]; [11],20%
same,pest or weed control at 500 g/ha,[6]; [12],25%
same,pest or weed control at 125 g/ha,[6]; [13],5%
same,pest or weed control at 500 g/ha,[6]; [14],10%
"Nc1nc(C2CC2)nc(C(=O)[O-])c1Br.[Na+] [Compound 113, 6-amino-5-bromo-2-cyclopropyl-4-pyrimidinecarboxylic acid monosodium salt]",pest or weed control at 125 g/ha,[1]; [11],65%
same,pest or weed control at 500 g/ha,[1]; [12],85%
same,pest or weed control at 125 g/ha,[1]; [13],15%
same,pest or weed control at 500 g/ha,[1]; [14],80%
same,pest or weed control at 125 g/ha,[2]; [11],80%
same,pest or weed control at 500 g/ha,[2]; [12],90%
same,pest or weed control at 125 g/ha,[2]; [13],80%
same,pest or weed control at 500 g/ha,[2]; [14],90%
same,pest or weed control at 125 g/ha,[3]; [11],25%
same,pest or weed control at 500 g/ha,[3]; [12],55%
same,pest or weed control at 125 g/ha,[3]; [13],15%
same,pest or weed control at 500 g/ha,[3]; [14],70%
same,pest or weed control at 125 g/ha,[4]; [11],80%
same,pest or weed control at 500 g/ha,[4]; [12],95%
same,pest or weed control at 125 g/ha,[4]; [13],65%
same,pest or weed control at 500 g/ha,[4]; [14],95%
same,pest or weed control at 125 g/ha,[5]; [11],90%
same,pest or weed control at 500 g/ha,[5]; [12],90%
same,pest or weed control at 125 g/ha,[5]; [13],90%
same,pest or weed control at 500 g/ha,[5]; [14],100%
same,pest or weed control at 125 g/ha,[6]; [11],55%
same,pest or weed control at 500 g/ha,[6]; [12],90%
same,pest or weed control at 125 g/ha,[6]; [13],25%
same,pest or weed control at 500 g/ha,[6]; [14],80%
COC(=O)c1nc(-c2ccc(I)cc2)nc(N)c1Br [Compound 128],"Plant response rating, Foxtail, Giant",[1]; [7],0
same,"Plant response rating, Foxtail, Giant",[1]; [8],0
same,"Plant response rating, Foxtail, Giant",[1]; [9],0
same,"Plant response rating, Foxtail, Giant",[1]; [10],0
same,"Plant response rating, Pigweed",[2]; [7],55
same,"Plant response rating, Pigweed",[2]; [8],75
same,"Plant response rating, Pigweed",[2]; [9],0
same,"Plant response rating, Pigweed",[2]; [10],0
same,"Plant response rating, Crabgrass",[3]; [7],0
same,"Plant response rating, Crabgrass",[3]; [8],0
same,"Plant response rating, Crabgrass",[3]; [9],0
same,"Plant response rating, Crabgrass",[3]; [10],0
same,"Plant response rating, Velvetleaf",[4]; [7],65
same,"Plant response rating, Velvetleaf",[4]; [8],80
same,"Plant response rating, Velvetleaf",[4]; [9],0
same,"Plant response rating, Velvetleaf",[4]; [10],0
same,"Plant response rating, Morningglory",[5]; [7],55
same,"Plant response rating, Morningglory",[5]; [8],80
same,"Plant response rating, Morningglory",[5]; [9],0
same,"Plant response rating, Morningglory",[5]; [10],0
same,"Plant response rating, Barnyardgrass",[6]; [7],0
same,"Plant response rating, Barnyardgrass",[6]; [8],0
same,"Plant response rating, Barnyardgrass",[6]; [9],0
same,"Plant response rating, Barnyardgrass",[6]; [10],0
COC(=O)c1nc(-c2ccc(Br)cc2)nc(N)c1Br [Compound 129],"Plant response rating, Foxtail, Giant",[1]; [7],0
same,"Plant response rating, Foxtail, Giant",[1]; [8],0
same,"Plant response rating, Foxtail, Giant",[1]; [9],0
same,"Plant response rating, Foxtail, Giant",[1]; [10],0
same,"Plant response rating, Pigweed",[2]; [7],80
same,"Plant response rating, Pigweed",[2]; [8],85
same,"Plant response rating, Pigweed",[2]; [9],0
same,"Plant response rating, Pigweed",[2]; [10],15
same,"Plant response rating, Crabgrass",[3]; [7],0
same,"Plant response rating, Crabgrass",[3]; [8],0
same,"Plant response rating, Crabgrass",[3]; [9],0
same,"Plant response rating, Crabgrass",[3]; [10],0
same,"Plant response rating, Velvetleaf",[4]; [7],80
same,"Plant response rating, Velvetleaf",[4]; [8],90
same,"Plant response rating, Velvetleaf",[4]; [9],0
same,"Plant response rating, Velvetleaf",[4]; [10],5
same,"Plant response rating, Morningglory",[5]; [7],60
same,"Plant response rating, Morningglory",[5]; [8],70
same,"Plant response rating, Morningglory",[5]; [9],0
same,"Plant response rating, Morningglory",[5]; [10],0
same,"Plant response rating, Barnyardgrass",[6]; [7],0
same,"Plant response rating, Barnyardgrass",[6]; [8],0
same,"Plant response rating, Barnyardgrass",[6]; [9],0
same,"Plant response rating, Barnyardgrass",[6]; [10],0
